ChEMBL document CHEMBL4229557, “Synthesis and SAR of new isoxazole-triazole bis-heterocyclic compounds as analogues of natural lignans with antiparasitic activity” (Bioorg Med Chem, 2018)
Active and inactive are the calls of the source. The calls are words filed in the database; no cut-off is given here.

Experiments:
[1] = tested on: Leishmania amazonensis; experiment: Growth inhibition of Leishmania amazonensis MHOM/BR/77/LTB0016 amastigote forms expressing beta-galactosidase infected in human THP1 cells at 100 uM by colorimetrc assay relative to control; assay type: functional; details: for inhibition of growth at 100 µM: MHOM/BR/77/LTB0016, THP-1, read-out: GI
[2] = tested on: Trypanosoma cruzi; experiment: Growth inhibition of Trypanosoma cruzi Tulahuen amastigote forms infected in human THP1 cells after 72 hrs by beta-galactosidase reporter gene assay; assay type: functional
[3] = tested on: Trypanosoma cruzi; experiment: Growth inhibition of Trypanosoma cruzi Tulahuen amastigote forms infected in human THP1 cells at 100 uM after 72 hrs by beta-galactosidase reporter gene assay relative to control; assay type: functional; details: THP-1, 72 h, read-out: GI
[4] = Selectivity index, ratio of CC50 for human THP1 cells to GI50 for Trypanosoma cruzi Tulahuen amastigote forms infected in human THP1 cells; assay type: toxicity, cell-based; details: read-out: Selectivity Index
[5] = biological target: Trypanothione reductase (Trypanosoma cruzi) (UniProt P28593); experiment: Inhibition of Trypanosoma cruzi Trypanothione reductase expressed in Escherichia coli BL21(DE3) at 100 uM using T(S)2 as substrate incubated for 30 mins measured for 30 mins in presence of NADPH by DTNB reagent based assay relative to control
Chain of Trypanothione reductase (Trypanosoma cruzi) (P28593 whole entry, looked up): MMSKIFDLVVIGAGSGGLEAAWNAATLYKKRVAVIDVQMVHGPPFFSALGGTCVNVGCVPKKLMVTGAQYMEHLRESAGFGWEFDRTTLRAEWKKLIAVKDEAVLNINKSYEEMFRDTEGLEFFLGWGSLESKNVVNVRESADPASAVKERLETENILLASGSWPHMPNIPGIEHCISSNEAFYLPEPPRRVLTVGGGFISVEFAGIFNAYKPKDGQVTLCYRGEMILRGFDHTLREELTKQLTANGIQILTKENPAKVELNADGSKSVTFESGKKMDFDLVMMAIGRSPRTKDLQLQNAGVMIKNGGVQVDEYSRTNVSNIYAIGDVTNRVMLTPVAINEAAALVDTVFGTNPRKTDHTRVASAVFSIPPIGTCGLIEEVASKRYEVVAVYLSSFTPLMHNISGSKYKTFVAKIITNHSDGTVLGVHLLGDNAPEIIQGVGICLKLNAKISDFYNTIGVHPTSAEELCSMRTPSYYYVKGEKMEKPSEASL

[6] = Cytotoxicity against human THP1 cells after 72 hrs by MTT assay; assay type: cell-based; details: THP-1 cells

SMILES | growth inhibition (GI) [1] | GI50 ([2]; THP-1, 72 h) | inhibition of growth at 100 µM [3] | selectivity ratio [4] | inhibition [5] | CC50 at 72 h [6] | GI50 [2] | inhibition of growth at 100 µM [1]
COc1ccc(-c2cn(Cc3cc(-c4ccccc4)no3)nn2)c(C)c1 | inactive | > 100 µM | 18.6% | – | – | – | – | –
COc1cc(OC)cc(-c2cn(Cc3cc(-c4ccccc4)no3)nn2)c1 | inactive | 54.5 µM | 95.3% | 2.6 | 0% | 143 µM | – | –
CCCCCc1ccc(-c2cn(Cc3cc(-c4ccccc4)no3)nn2)cc1 | inactive | – | 0% | – | – | – | inactive | –
COc1ccc(-c2cn(Cc3cc(-c4ccc(OC)cc4)no3)nn2)cc1 | inactive | > 100 µM | 43.2% | – | – | – | – | –
CCCCCc1ccc(-c2cn(Cc3cc(-c4ccc(OC)c(OC)c4)no3)nn2)cc1 | inactive | 12.2 µM | 80.2% | > 41 | 0% | > 500 µM | – | –
Cc1cc(C)c(-c2cn(Cc3cc(-c4ccc5c(c4)OCO5)no3)nn2)cc1C | inactive | > 100 µM | 13.4% | – | – | – | – | –
COc1ccc(-c2cc(Cn3cc(-c4cc(C)c(C)cc4C)nn3)on2)cc1OC | inactive | 55.2 µM | 89.6% | > 9 | 9% | > 500 µM | – | –
COc1ccc2cc(-c3cn(Cc4cc(-c5ccc(OC)c(OC)c5)no4)nn3)ccc2c1 | inactive | > 100 µM | 26.2% | – | – | – | – | –
COc1ccccc1-c1cn(Cc2cc(-c3ccccc3)no2)nn1 | inactive | > 100 µM | 12.4% | – | – | – | – | –
COc1ccc(-c2cc(Cn3cc(-c4ccc(F)cc4)nn3)on2)cc1OC | inactive | > 100 µM | 32% | – | – | – | – | –
COc1ccc(-c2cn(Cc3cc(-c4ccc5c(c4)OCO5)no3)nn2)cc1 | – | > 100 µM | 9.9% | – | – | – | – | 2.8%
COc1ccc(-c2cn(Cc3cc(-c4ccc(OC)c(OC)c4)no3)nn2)cc1 | inactive | 22.7 µM | 81.9% | > 22 | 9.6% | > 500 µM | – | –
COc1ccc(-c2cn(Cc3cc(-c4ccccc4)no3)nn2)cc1 | inactive | > 100 µM | 43.3% | – | – | – | – | –
COc1ccc(-c2cc(Cn3cc(-c4cc(OC)cc(OC)c4)nn3)on2)cc1 | inactive | > 100 µM | 3.6% | – | – | – | – | –
Cc1cc(C)c(-c2cn(Cc3cc(-c4ccccc4)no3)nn2)cc1C | inactive | 88.4 µM | 89.5% | 2.3 | 0% | 200 µM | – | –
COc1ccc(-c2cc(Cn3cc(-c4cc(C)c(C)cc4C)nn3)on2)cc1 | inactive | > 100 µM | 33.4% | – | – | – | – | –
Fc1ccc(-c2cn(Cc3cc(-c4ccccc4)no3)nn2)cc1 | inactive | – | 0% | – | – | – | inactive | –
O=[N+]([O-])c1ccc(-c2cn(Cc3cc(-c4ccccc4)no3)nn2)cc1 | inactive | > 100 µM | 46.9% | – | – | – | – | –
c1ccc(-c2cn(Cc3cc(-c4ccccc4)no3)nn2)cc1 | inactive | > 100 µM | 33.7% | – | – | – | – | –
COc1ccc(-c2cn(Cc3cc(-c4ccc(OC)c(OC)c4)no3)nn2)c(C)c1 | inactive | > 100 µM | 13.6% | – | – | – | – | –
COc1ccc(-c2cc(Cn3cc(-c4ccc(CO)cc4)nn3)on2)cc1OC | inactive | > 100 µM | 43.4% | – | – | – | – | –

SMILES | growth inhibition (GI) [1] | GI50 ([2]; THP-1, 72 h) | inhibition of growth at 100 µM [3] | selectivity ratio [4] | inhibition [5] | CC50 at 72 h [6] | GI50 [2] | inhibition of growth at 100 µM [1]
FC(F)(F)Oc1ccc(-c2cn(Cc3cc(-c4ccc5c(c4)OCO5)no3)nn2)cc1 | inactive | > 100 µM | 26.8% | – | – | – | – | –
CCCCCc1ccc(-c2cn(Cc3cc(-c4ccc(OC)cc4)no3)nn2)cc1 | inactive | > 100 µM | 13.4% | – | – | – | – | –
COc1cc(OC)cc(-c2cn(Cc3cc(-c4ccc5c(c4)OCO5)no3)nn2)c1 | inactive | 49.9 µM | 87.9% | 4.2 | 0% | 208 µM | – | –
COc1ccc(-c2cc(Cn3cc(-c4ccccc4)nn3)on2)cc1OC | inactive | > 100 µM | 12.2% | – | – | – | – | –
COc1ccc(-c2cc(Cn3cc(-c4ccc(C)cc4)nn3)on2)cc1OC | inactive | > 100 µM | 7.6% | – | – | – | – | –
COc1ccc(-c2cc(Cn3cc(-c4ccc(OC(F)(F)F)cc4)nn3)on2)cc1OC | inactive | 40.1 µM | 78.5% | 5.7 | 0% | 227 µM | – | –
COc1ccc(-c2cc(Cn3cc(-c4ccccc4OC)nn3)on2)cc1OC | inactive | > 100 µM | 43.7% | – | – | – | – | –
COc1ccc(-c2cc(Cn3cc(-c4ccc(OC(F)(F)F)cc4)nn3)on2)cc1 | inactive | > 100 µM | 26% | – | – | – | – | –
Cc1ccc(-c2cn(Cc3cc(-c4ccccc4)no3)nn2)cc1 | inactive | > 100 µM | 45.2% | – | – | – | – | –
CN(C)c1ccc(-c2cn(Cc3cc(-c4ccccc4)no3)nn2)cc1 | inactive | > 100 µM | 32.6% | – | – | – | – | –
COc1ccc(-c2cc(Cn3cc(-c4cc(C)ccc4C)nn3)on2)cc1OC | inactive | > 100 µM | 4% | – | – | – | – | –
COc1ccc(-c2cc(Cn3cc(-c4ccc(N(C)C)cc4)nn3)on2)cc1OC | inactive | > 100 µM | 33.9% | – | – | – | – | –
Nc1ccc(-c2cn(Cc3cc(-c4ccccc4)no3)nn2)cc1 | inactive | – | 0% | – | – | – | inactive | –
CN(C)CCCN1c2ccccc2CCc2ccc(Cl)cc21 [CLOMIPRAMINE] | – | 14 µM | – | – | – | – | – | –
COc1ccc(-c2cc(Cn3cc(-c4ccc(N)cc4)nn3)on2)cc1OC | inactive | > 100 µM | 42.8% | – | – | – | – | –
FC(F)(F)Oc1ccc(-c2cn(Cc3cc(-c4ccccc4)no3)nn2)cc1 | inactive | > 100 µM | 28.7% | – | – | – | – | –
COc1ccc(-c2cc(Cn3cc(-c4ccc([N+](=O)[O-])cc4)nn3)on2)cc1OC | inactive | > 100 µM | 37.8% | – | – | – | – | –
Cc1ccc(C)c(-c2cn(Cc3cc(-c4ccccc4)no3)nn2)c1 | inactive | – | 0% | – | – | – | inactive | –
OCc1ccc(-c2cn(Cc3cc(-c4ccccc4)no3)nn2)cc1 | inactive | – | 0% | – | – | – | inactive | –
COc1ccc2cc(-c3cn(Cc4cc(-c5ccccc5)no4)nn3)ccc2c1 | inactive | > 100 µM | 43.1% | – | – | – | – | –
CCCCCc1ccc(-c2cn(Cc3cc(-c4ccc5c(c4)OCO5)no3)nn2)cc1 | – | > 100 µM | 48.9% | – | – | – | – | 1.7%
